The test system of one assay is MYB. The experiment in a line: Protein abundance, HiBit-assay system (Promega), MYB. Format: cell-based. Particulars: Table 6; HiBiT-modified K562 cells, 24 hours. From the text: In some embodiments, a compound of Formula (I) or (II) or a pharmaceutically acceptable salt thereof, e.g., as described herein, modulates the expression of a target protein (e.g., HTT or MYB) in a reference cell or sample. In an embodiment, a compound of Formula (I) or (II) or a pharmaceutically acceptable salt thereof, e.g., as described herein, increases the expression of a target protein (e.g., HTT or MYB) in a reference cell or sample. In an embodiment, a compound of Formula (I) or (II) or a pharmaceutically acceptable salt thereof, e.g., as described herein, decreases the expression of a target protein (e.g., HTT or MYB) in a reference cell or sample. The effect of an exemplary compound of Formula (I) or (II) on protein abundance may be measured using a standard assay for measuring protein abundance, such as the HiBit-assay system (Promega). In this assay, percent response for each respective cell line may be as calculated at each compound concentration as follows: % response=100*(S−PC)/(NC−PC). For the normalized response at each concentration, a four-parameter logistical regression may be fit to the data and the response may be interpolated at the 50% value to determine a concentration for protein abundance at 50% (IC50) an untreated control. In an embodiment, a compound of Formula (I) or (II) or a pharmaceutically acceptable salt thereof, e.g., as described herein, has a protein abundance response less than 100 nM. In an embodiment, a compound of Formula (I) or (II) or a pharmaceutically acceptable salt thereof, e.g., as described herein, has a protein abundance response between 100-1000 nM. In an embodiment, a compound of Formula (I) or (II) or a pharmaceutically acceptable salt thereof, e.g., as described herein, has a protein abundance response greater than 1000 nM. In an embodiment, a compound of Formula (I) or (II) or a pharmaceutically acceptable salt thereof, e.g., as described herein, has a protein abundance response greater than 10 uM. In an embodiment, a compound of Formula (I) or (II) or a pharmaceutically acceptable salt thereof, e.g., as described herein, modulates the protein abundance of a target protein by about 1%, 5%, 10%, 15%, 20%, 25%, 30%, 35%, 40%, 45%, 50%, 55%, 60%, 65%, 70%, 75%, 80%, 85%, 90%, 95%, 99% or more, e.g., compared with a reference compound.

A further assay has as its system MYB mRNA. Kind of assay: Splicing RT-qPCR assay, MYB canonical (CJ) and alternative (AJ) junction mRNA. It is filed as cell-based, human. Particulars: Homo sapiens. Put shortly: (§1)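 One-step RT-qPCR on cell lysates, CJ and AJ isoforms quantified; housekeeping normalization GAPDH/GUSB (K562) or PPIA (A673). Cells: A673 in DMEM/10% FBS or K562 in IMDM/10% FBS. Compounds 11-pt 3-fold, top 10 uM, 24 h, 37 °C, 5% CO2.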

The subject of another assay is SMN2 mRNA. The experiment in a line: Splicing RT-qPCR gene panel, SMN2 canonical junction (CJ) mRNA. It is filed as cell-based, human. Conditions: Homo sapiens, Tables 4A/4B, read-out: SMN2 (IC50, decrease in CJ mRNA, gene panel). Put shortly:
(§2)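 A673/K562, 24 h cpd, 11-pt 3-fold from 10 uM, DMSO ≤0.25%. Lysis, direct RT-qPCR of CJ isoform, ≥duplicate. GAPDH/GUSB/PPIA norm, ΔΔCt vs DMSO → RQ → % response.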

The test system of another assay is Target C mRNA. The experiment in a line: Splicing RT-qPCR gene panel, Target C canonical junction (CJ) mRNA. Format: cell-based, human. Conditions: Homo sapiens, Tables 4A/4B, read-out: Target C (IC50, decrease in CJ mRNA, gene panel). Put shortly:
as §2

Assay [1] relates to HTT mRNA. Kind of assay: Splicing RT-qPCR gene panel, HTT canonical junction (CJ) mRNA. Format: cell-based, human. Particulars: Homo sapiens, Tables 4A/4B, read-out: HTT (IC50, decrease in CJ mRNA, gene panel). In short, it runs like this:
as §2

The next assay deals with K562 cells. Kind of assay: Cell Titer Glo 2.0 cell viability assay, K562. Format: cell-based. Particulars: Homo sapiens, 72 hours incubation.
The test system of assay [2] is HTT mRNA. Kind of assay: Splicing RT-qPCR assay, HTT canonical (CJ) and alternative (AJ) junction mRNA. Format: cell-based, human. Conditions: Homo sapiens, A673 or K562 cells, 24 hours compound treatment. Put shortly: as §1
[3] abbreviates: Tables 4A/4B, canonical junction qPCR panel, read-out: MYB (IC50, decrease in CJ mRNA, gene panel).

Where “and” joins values, the source holds several entries; their conditions need not be identical. Equal values may be shown once. Read-outs that look alike come from different tables or passages of the source. A value given as a limit tells only on which side of the number the result lay.

Experimental for K562 cells: Compounds described herein were screened for toxicity in K562 (human chronic myelogenous leukemia) and SH-SY5Y (human neuroblastoma) cells using a Cell Titer Glo 2.0 assay.
• Promega CellTiter-Glo® 2.0 Cell Viability Assay (cat #G9241) • Corning 384-well TC-treated microplates (cat #3570)
Cells were plated at 500 cells/well (K562 cells) in 45 μL of IMDM supplemented with 10% FBS in a 384-well opaque plate. Wells containing only medium were used as a blank control. Test compounds (e.g., compounds of Formula (I) or (II)) were first serially diluted in DMSO then diluted 1:100 with EIDM+10% FBS. The final concentration of DMSO was 0.1% in each well. The cells were incubated for 72 hours at 37° C. and 5% CO2 before assaying with Cell Titer Glo 2.0 reagent.

`Cc1cn2cc(NC(=O)c3ccc(C4CCNCC4)c4oc(C)nc34)cc(F)c2n1` [Compound 187]: the concentration for half-maximal inhibition (IC50) is 100 to 1000 nM and < 100 nM with MYB; 100 to 1000 nM in the assay on MYB mRNA (setting [3]); less than 100 nM in the assay with SMN2 mRNA; 1 to 10 µM in the assay on Target C mRNA; 100 to 1000 nM in the assay with HTT mRNA [1]. Further, the GI50 in the assay on K562 cells lay in the range of 100 to 1000 nM.

Take `Cc1cn2cc(NC(=O)c3ccc(N(C)C4CCN(C)CC4)c4cc(C)oc34)cc(F)c2n1` [Compound 200]: the concentration for half-maximal inhibition (IC50) with HTT mRNA [2] (24 h, read-out: HTT CJ (IC50, decrease in canonical junction mRNA)) is 1 to 10 µM; in the assay on MYB mRNA (24 h, A673 or K562 cells, 24 hours compound treatment, RT-qPCR, read-out: MYB CJ (IC50, decrease in canonical junction mRNA)) it was 1000 to 10000 nM; in the assay on MYB mRNA (setting [3]), 1000 to 10000 nM; with SMN2 mRNA it was less than 100 nM; in the assay with Target C mRNA, 1 to 10 µM; in the assay with HTT mRNA [1] it was 1000 to 10000 nM. Besides, the AC50 with HTT mRNA [2] (read-out: HTT AJ (AC50, increase in alternative junction mRNA)) is 1 to 10 µM; in the assay on MYB mRNA (24 h, A673 or K562 cells, 24 hours compound treatment, RT-qPCR, read-out: MYB AJ (AC50, increase in alternative junction mRNA)) it was 1 to 10 µM. In the assay with K562 cells, this molecule showed a GI50 of 1000 to 10000 nM.
